Results reported in ChEMBL document CHEMBL5046240, “Design, synthesis, and evaluation of potent RIPK1 inhibitors with in vivo anti-inflammatory activity” (Eur J Med Chem, 2022).

How the values were obtained:
[1] = Permeability across apical to basolateral side in human Caco-2 cells at pH 7.4 by LC-MS/MS analysis; assay type: ADME, cell-based; conditions: Caco-2, pH 7.4, read-out: permeability
CYP2C19 = CYP2C19 (Homo sapiens, UniProt P33261); assay: Inhibition of CYP2C19 (unknown origin) using cocktail of probe as substrate at 10 uM preincubated for 20 mins followed by substrate addition and measured after 20 mins by LC-MS/MS analysis relative to control; assay type: ADME; conditions: time 40 min
CYP3A4 = CYP3A4 (Homo sapiens, UniProt P08684); assay: Inhibition of CYP3A4 (unknown origin) using midazolam as cocktail probe substrate at 10 uM preincubated for 20 mins followed by substrate addition and measured after 20 mins by LC-MS/MS analysis relative to control; assay type: ADME; conditions: time 40 min
[2] = Oral bioavailability in Sprague-Dawley rat at 10 mg/kg measured upto 24 hrs by LC-MS/MS analysis; assay type: ADME, organism-based; conditions: in vivo
[3] = Metabolic stability in rat liver microsomes assessed as intrinsic clearance by LC-MS/MS analysis; assay type: ADME, Microsome; conditions: read-out: CLH
[4] = Fraction unbound clearance in Sprague-Dawley rat; assay type: ADME
[5] = Toxicity in C57BL/6J mouse assessed as effect on liver morphological changes at 5 to 25 mg/kg, po administered daily for 7 days by H and E staining method; assay type: organism-based; conditions: in vivo, 168 h, dose 5-25 mg/kg, time 7 day
[6] = AUC (0 to 24 hrs) in Sprague-Dawley rat at 10 mg/kg, po measured upto 24 hrs by LC-MS/MS analysis; assay type: ADME, organism-based; parameters: route oral, dose 10 mg/kg, time <=24; conditions: in vivo
[7] = Tmax in Sprague-Dawley rat at 10 mg/kg, po measured upto 24 hrs by LC-MS/MS analysis; assay type: ADME, organism-based; conditions: in vivo
[8] = Efflux ratio of permeability across basolateral to apical side over apical to basolateral side in human Caco-2 cells by LC-MS/MS analysis; assay type: ADME, cell-based
[9] = Toxicity in C57BL/6J mouse assessed as effect on spleen morphological changes at 5 to 25 mg/kg, po administered daily for 7 days by H and E staining method; assay type: organism-based; conditions: in vivo, 168 h, dose 5-25 mg/kg, time 7 day
CYP1A2 = biological target: T1, CYP1A2 (Homo sapiens, UniProt P05177); assay: Inhibition of CYP1A2 (unknown origin) using Phenacetin as cocktail probe substrate at 10 uM preincubated for 20 mins followed by substrate addition and measured after 20 mins by LC-MS/MS analysis relative to control; assay type: ADME; conditions: time 40 min
T1 sequence (P05177 whole entry): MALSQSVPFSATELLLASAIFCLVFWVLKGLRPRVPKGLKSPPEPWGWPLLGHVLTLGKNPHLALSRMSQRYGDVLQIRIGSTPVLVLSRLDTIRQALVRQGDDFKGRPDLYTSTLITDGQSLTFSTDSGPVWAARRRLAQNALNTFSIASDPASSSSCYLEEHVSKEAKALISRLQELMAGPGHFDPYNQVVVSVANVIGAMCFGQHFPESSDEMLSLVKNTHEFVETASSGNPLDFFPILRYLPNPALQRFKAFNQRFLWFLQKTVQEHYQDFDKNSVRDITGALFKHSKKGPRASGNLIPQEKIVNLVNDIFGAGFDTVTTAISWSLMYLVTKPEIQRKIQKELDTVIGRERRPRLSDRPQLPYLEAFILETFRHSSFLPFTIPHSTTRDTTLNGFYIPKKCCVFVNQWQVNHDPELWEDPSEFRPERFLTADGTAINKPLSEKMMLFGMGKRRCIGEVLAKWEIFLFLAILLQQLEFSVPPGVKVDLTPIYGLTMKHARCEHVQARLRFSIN

[10] = AUC (0 to 24 hrs) in Sprague-Dawley rat at 2 mg/kg, iv measured upto 24 hrs by LC-MS/MS analysis; assay type: ADME, organism-based; parameters: route intravenous, dose 2 mg/kg, time <=24; conditions: in vivo

CYP3A4, sequence (P08684 whole entry): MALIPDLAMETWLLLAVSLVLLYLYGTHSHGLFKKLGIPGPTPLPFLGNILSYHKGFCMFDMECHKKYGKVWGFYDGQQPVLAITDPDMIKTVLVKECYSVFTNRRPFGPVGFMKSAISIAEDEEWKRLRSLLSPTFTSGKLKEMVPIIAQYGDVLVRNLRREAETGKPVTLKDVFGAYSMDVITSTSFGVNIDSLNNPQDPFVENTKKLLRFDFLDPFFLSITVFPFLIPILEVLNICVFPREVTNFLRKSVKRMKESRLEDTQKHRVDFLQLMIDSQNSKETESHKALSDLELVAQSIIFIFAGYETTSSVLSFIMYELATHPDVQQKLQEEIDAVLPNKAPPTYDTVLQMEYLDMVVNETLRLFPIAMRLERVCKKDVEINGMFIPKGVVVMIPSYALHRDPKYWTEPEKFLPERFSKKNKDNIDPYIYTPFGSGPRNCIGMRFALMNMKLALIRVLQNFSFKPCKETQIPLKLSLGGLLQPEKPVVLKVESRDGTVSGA
CYP2C19, sequence (P33261 whole entry): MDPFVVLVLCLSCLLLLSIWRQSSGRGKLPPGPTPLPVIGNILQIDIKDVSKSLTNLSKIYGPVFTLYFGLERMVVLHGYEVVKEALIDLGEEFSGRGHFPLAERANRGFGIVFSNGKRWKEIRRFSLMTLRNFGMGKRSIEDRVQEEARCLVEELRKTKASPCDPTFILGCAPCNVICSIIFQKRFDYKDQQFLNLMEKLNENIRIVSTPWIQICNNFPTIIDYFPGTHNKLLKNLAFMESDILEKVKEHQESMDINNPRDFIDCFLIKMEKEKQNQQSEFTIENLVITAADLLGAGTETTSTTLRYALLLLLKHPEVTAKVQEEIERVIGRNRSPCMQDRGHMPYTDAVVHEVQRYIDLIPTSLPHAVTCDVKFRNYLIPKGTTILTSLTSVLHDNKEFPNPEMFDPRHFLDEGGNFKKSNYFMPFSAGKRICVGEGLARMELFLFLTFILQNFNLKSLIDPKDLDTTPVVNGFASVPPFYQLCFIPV

Papp A→B [1]: 33 ×10⁻⁶ cm/s | inhibition at 20 min, 10 µM (CYP2C19): 41% | inhibition at 20 min, 10 µM (CYP3A4): 17% | F [2]: 63% | CLint scaled [3]: 159 mL/min/kg | CL free [4]: 183 mL/min/kg | AUC [6]: 1208 ng·h/mL | Tmax [7]: 1.2 h | efflux ratio [8]: 1.1 | inhibition at 20 min, 10 µM (CYP1A2): 16% | AUC [10]: 1208 ng·h/mL
Compound: Cc1ncc(-c2ccc3nc(NC(=O)C4CC4)sc3c2)cc1NC(=O)OC1CCOCC1
Activity [5]: Non-Toxic | Activity [9]: Non-Toxic
